# Reference: patent US9040532B2, “Alpha adrenergic receptor modulators” (Allergan, Inc., priority 2009, dated 2015)
# Key:
# Assay type in all cases: cell-based
# Alpha 2B = target: T1, Alpha 2B (Homo sapiens, UniProt P18089); experiment: FLIPR assay, intracellular Ca2+ mobilization, alpha 2B; conditions: FLIPR; for EC50: agonist, read-out: Alpha 2B Potency (EC50); for Alpha 2B relative efficacy compared to a standard full agonist: value in parentheses
# T1 sequence (P18089 1-450): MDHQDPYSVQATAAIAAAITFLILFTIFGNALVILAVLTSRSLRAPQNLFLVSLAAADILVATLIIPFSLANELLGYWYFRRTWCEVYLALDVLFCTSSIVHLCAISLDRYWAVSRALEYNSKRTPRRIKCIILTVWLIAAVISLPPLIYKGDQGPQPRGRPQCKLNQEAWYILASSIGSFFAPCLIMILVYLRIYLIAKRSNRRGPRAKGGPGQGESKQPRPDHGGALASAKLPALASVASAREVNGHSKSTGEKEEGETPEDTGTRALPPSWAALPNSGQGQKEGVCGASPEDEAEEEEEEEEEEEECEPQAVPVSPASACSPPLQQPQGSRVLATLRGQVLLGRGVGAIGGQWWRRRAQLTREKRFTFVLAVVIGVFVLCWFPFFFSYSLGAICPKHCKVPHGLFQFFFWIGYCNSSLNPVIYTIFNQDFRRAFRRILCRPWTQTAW
# Description: (§1) Cells are loaded into a plate reader with a Ca^2+ dye indicator and incubated with various compounds. This assay is adequate for monitoring the intracellular Ca^2+ mobilization from fluorescent readings to evaluate receptor agonists.
# Alpha 2C = target: T2, Alpha 2C (Homo sapiens, UniProt P18825); experiment: FLIPR assay, intracellular Ca2+ mobilization, alpha 2C; conditions: for EC50: agonist, read-out: Alpha 2C Potency (EC50); for Alpha 2C relative efficacy compared to a standard full agonist: value in parentheses
# T2 sequence (P18825 1-462): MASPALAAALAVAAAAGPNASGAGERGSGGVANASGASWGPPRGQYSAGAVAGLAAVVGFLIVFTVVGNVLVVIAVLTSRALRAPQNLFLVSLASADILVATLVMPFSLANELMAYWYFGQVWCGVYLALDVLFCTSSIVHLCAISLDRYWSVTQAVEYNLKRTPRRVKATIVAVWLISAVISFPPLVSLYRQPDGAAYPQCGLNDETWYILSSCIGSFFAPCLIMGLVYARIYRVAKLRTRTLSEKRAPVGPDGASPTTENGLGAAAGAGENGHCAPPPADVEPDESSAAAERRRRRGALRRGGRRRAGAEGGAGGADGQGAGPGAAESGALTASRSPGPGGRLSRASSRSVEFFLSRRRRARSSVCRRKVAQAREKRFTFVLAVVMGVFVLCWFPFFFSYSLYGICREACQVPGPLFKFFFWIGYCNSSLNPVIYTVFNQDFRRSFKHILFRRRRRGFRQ
# Description: as §1
# Alpha 2A = target: T3, Alpha 2A (Homo sapiens, UniProt P08913); experiment: FLIPR assay, intracellular Ca2+ mobilization, alpha 2A; conditions: for EC50: agonist, read-out: Alpha 2A Potency (EC50); for Alpha 2A relative efficacy compared to a standard full agonist: value in parentheses
# T3 sequence (P08913 1-465): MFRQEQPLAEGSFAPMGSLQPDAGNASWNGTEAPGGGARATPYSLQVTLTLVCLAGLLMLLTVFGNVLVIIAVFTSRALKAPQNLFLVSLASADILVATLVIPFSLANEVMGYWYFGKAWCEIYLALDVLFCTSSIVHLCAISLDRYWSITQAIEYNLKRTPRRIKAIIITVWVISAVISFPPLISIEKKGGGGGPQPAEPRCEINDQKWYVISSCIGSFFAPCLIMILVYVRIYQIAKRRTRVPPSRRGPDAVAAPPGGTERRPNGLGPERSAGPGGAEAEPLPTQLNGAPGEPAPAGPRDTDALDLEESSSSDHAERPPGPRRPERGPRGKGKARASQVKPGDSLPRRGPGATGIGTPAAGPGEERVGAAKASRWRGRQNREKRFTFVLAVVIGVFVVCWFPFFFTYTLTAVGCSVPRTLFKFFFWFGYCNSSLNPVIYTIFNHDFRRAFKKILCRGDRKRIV
# Description: The compounds described herein were tested for alpha adrenergic activity using a Fluorometric Imaging plate Reader (FLIPR) assay (Princen et al., 2003, Cytometry Part A. 51, pp. 35-45). Cells are loaded into a plate reader with a Ca^2+ dye indicator and incubated with various compounds. This assay is adequate for monitoring the intracellular Ca^2+ mobilization from fluorescent readings to evaluate receptor agonists. […] The compounds described herein activate alpha adrenergic receptors.
SMILES,EC50 (Alpha 2B) [µM],Alpha 2B relative efficacy compared to a standard full agonist (Alpha 2B),EC50 (Alpha 2C) [µM],Alpha 2C relative efficacy compared to a standard full agonist (Alpha 2C),EC50 (Alpha 2A) [µM],Alpha 2A relative efficacy compared to a standard full agonist (Alpha 2A)
"c1ccc2c(c1)CCC[C@@H]2NC1=NCCC1 [Compound 34, N-[(1S)-1,2,3,4-Tetrahydronaphthalen-1-yl]-3,4-dihydro-2H-pyrrol-5-amine]",0.163,(0.43),0.221,(0.8),,
"c1nc2cc(NC3=NCCC3)ccc2[nH]1 [Compound 4, N-(3,4-Dihydro-2H-pyrrol-5-yl)-1H-benzimidazol-5-amine]",0.714,(0.19),0.142,(1.06),,
"c1cc(NC2=NCCC2)c2cc[nH]c2c1 [Compound 25, N-(3,4-Dihydro-2H-pyrrol-5-yl)-1H-indol-4-amine]",0.152,(0.42),< 0.01,(0.99),0.115,(0.7)
"c1cc(NC2=NCCC2)c2[nH]ccc2c1 [Compound 22, N-(3,4-Dihydro-2H-pyrrol-5-yl)-1H-indol-7-amine]",,,2.16,(0.61),,
"Cc1c(NC2=NCCC2)ccc2[nH]ccc12 [Compound 18, N-(3,4-Dihydro-2H-pyrrol-5-yl)-4-methyl-1H-indol-5-amine]",0.039,(0.18),0.069,(0.9),,
"c1cc(NC2=NCCC2)c2cnccc2c1 [Compound 32, N-(3,4-Dihydro-2H-pyrrol-5-yl)isoquinolin-8-amine]",,,0.643,(0.95),,
"Cc1c(/N=C2\CCCN2)cnc2[nH]ccc12 [Compound 38, 4-Methyl-N-[(2E)-pyrrolidin-2-ylidene]-1H-pyrrolo[2,3-b]pyridin-5-amine]",,,0.022,(0.9),0.555,(0.79)
"c1cc2cc(NC3=NCCC3)ccc2[nH]1 [Compound 17, N-(3,4-Dihydro-2H-pyrrol-5-yl)-1H-indol-5-amine]",0.01,(0.15),0.009,(0.9),,
"Cc1cccc2c1CC[C@@H]2NC1=NCCC1 [Compound 37, N-[(1S)-4-Methyl-2,3-dihydro-1H-inden-1-yl]-3,4-dihydro-2H-pyrrol-5-amine]",0.021,(0.9),0.058,(0.94),0.272,(0.43)
"c1cc2c(c(NC3=NCCC3)c1)CCC2 [Compound 16, N-(2,3-Dihydro-1H-inden-4-yl)-3,4-dihydro-2H-pyrrol-5-amine]",,,0.123,(0.85),,
"Cc1ccc2ccccc2c1NC1=NCCC1 [Compound 2, N-(2-Methyl-1-naphthyl)-3,4-dihydro-2H-pyrrol-5-amine]",0.145,(0.18),0.368,(0.85),0.733,(0.61)
"c1cc2ccc(NC3=NCCC3)cc2[nH]1 [Compound 21, N-(3,4-Dihydro-2H-pyrrol-5-yl)-1H-indol-6-amine]",,,0.28,(0.75),,
"Brc1cc(NC2=NCCC2)cc2cc[nH]c12 [Compound 20, 7-Bromo-N-(3,4-dihydro-2H-pyrrol-5-yl)-1H-indol-5-amine]",0.079,(0.61),0.012,(0.95),,
"c1cnc2c(NC3=NCCC3)cccc2c1 [Compound 30, N-(3,4-dihydro-2H-pyrrol-5-yl)quinolin-8-amine]",,,2.97,(0.71),,
"Clc1c(/N=C2\CCCN2)cnc2cccnc12 [Compound 6, 4-Chloro-N-[(2E)-pyrrolidin-2-ylidene]-1,5-naphthyridin-3-amine]",,,2.6,(0.59),,
"Brc1ccc(NC2=NCCC2)c2ccccc12 [Compound 3, N-(4-Bromo-1-naphthyl)-3,4-dihydro-2H-pyrrol-5-amine]",0.7,(0.15),0.833,(0.85),,
"c1cnc2cc(NC3=NCCC3)ccc2n1 [Compound 14, N-(3,4-Dihydro-2H-pyrrol-5-yl)quinoxalin-6-amine]",,,2.74,(0.66),,
"c1ccc2c(c1)CC[C@@H]2NC1=NCCC1 [Compound 33, N-[(1S)-2,3-Dihydro-1H-inden-1-yl]-3,4-dihydro-2H-pyrrol-5-amine]",,,0.281,(0.68),,
"c1cnc2cc(NC3=NCCC3)ccc2c1 [Compound 28, N-(3,4-Dihydro-2H-pyrrol-5-yl)quinolin-7-amine]",,,0.104,(0.96),,
"Clc1ccc(NC2=NCCC2)c2ccccc12 [Compound 7, N-(4-Chloro-1-naphthyl)-3,4-dihydro-2H-pyrrol-5-amine]",1.07,(0.33),0.672,(0.84),,
"Fc1cccc2c1C(NC1=NCCC1)CC2 (centres unmarked) [Compound 35, N-(7-Fluoro-2,3-dihydro-1H-inden-1-yl)-3,4-dihydro-2H-pyrrol-5-amine]",0.618,(0.44),0.56,(0.87),,
"Clc1cc(NC2=NCCC2)cc2nc[nH]c12 [Compound 13, 7-Chloro-N-(3,4-dihydro-2H-pyrrol-5-yl)-1H-benzimidazol-5-amine]",1.84,(0.35),0.435,(0.98),,
"Cc1cc(NC2=NCCC2)cc2cc[nH]c12 [Compound 19, N-(3,4-Dihydro-2H-pyrrol-5-yl)-7-methyl-1H-indol-5-amine]",0.142,(0.29),0.012,(0.85),,
"c1cc2cc(NC3=NCCC3)ccc2o1 [Compound 24, N-1-Benzofuran-5-yl-3,4-dihydro-2H-pyrrol-5-amine]",,,0.63,(0.51),,
"c1nc2c(cc1NC1=NCCC1)CCC2 [Compound 5, N-(3,4-Dihydro-2H-pyrrol-5-yl)-6,7-dihydro-5H-cyclopenta[b]pyridin-3-amine]",,,1.28,(0.86),,
"c1cc2cc(NC3=NCCC3)ccc2s1 [Compound 23, N-1-Benzothien-5-yl-3,4-dihydro-2H-pyrrol-5-amine]",,,0.089,(0.66),,
